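How tested: cells in 96-well plates exposed to compound for 48 hours at five concentrations. At the TGI there is no net growth.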
Key:
Assay in all cases: NCI tumour cell line growth inhibition, 48 h
HCC-2998 colon = system: HCC-2998 colon
HOP-92 NSCLC = system: HOP-92 NSCLC
COLO 205 colon = system: COLO 205 colon
SK-MEL-5 melanoma = system: SK-MEL-5 melanoma
SF-295 CNS = system: SF-295 CNS
OVCAR-4 ovarian = system: OVCAR-4 ovarian
NCI-H23 lung = system: NCI-H23 lung
U251 CNS = system: U251 CNS
EKVX NSCLC = system: EKVX NSCLC
MOLT-4 leukemia = system: MOLT-4 leukemia
CCRF-CEM leukemia = system: CCRF-CEM leukemia
MDA-MB-435 = system: MDA-MB-435
HS 578T breast = system: HS 578T breast
MDA-MB-231 breast = system: MDA-MB-231 breast
SF-539 CNS = system: SF-539 CNS
SNB-19 CNS = system: SNB-19 CNS
KM12 colon = system: KM12 colon
MDA-N = system: MDA-N
MALME-3M melanoma = system: MALME-3M melanoma

Row | SMILES | TGI (HCC-2998 colon) | TGI (HOP-92 NSCLC) | TGI (COLO 205 colon) | TGI (SK-MEL-5 melanoma) | TGI (SF-295 CNS) | TGI (OVCAR-4 ovarian) | TGI (NCI-H23 lung) | TGI (U251 CNS) | TGI (EKVX NSCLC) | TGI (MOLT-4 leukemia) | TGI (CCRF-CEM leukemia) | TGI (MDA-MB-435) | TGI (HS 578T breast) | TGI (MDA-MB-231 breast) | TGI (SF-539 CNS) | TGI (SNB-19 CNS) | TGI (KM12 colon) | TGI (MDA-N) | TGI (MALME-3M melanoma)
1 | CC(C)[Si]1(C(C)C)OCC2OC3(CO)C(Oc4nc(=O)ccn43)C2O[Si](C(C)C)(C(C)C)O1 (stereo unspecified) | 25.4 µM | 32.2 µM | 22 µM | 32.9 µM | 29.6 µM | 26.7 µM | 30.1 µM | 28.1 µM | 35 µM | 24.8 µM | 24.6 µM | 31.4 µM | 45.9 µM | 23.2 µM | 28.3 µM | 32.7 µM | 30.8 µM | – | –
2 | CC(C)(C)OC/C=C(/CO)[C@@H]1C=C[C@H](O)C1 | > 100 µM | – | > 100 µM | – | > 100 µM | > 100 µM | > 100 µM | > 100 µM | > 100 µM | > 100 µM | > 100 µM | > 100 µM | – | > 100 µM | > 100 µM | > 100 µM | > 100 µM | > 100 µM | > 100 µM
3 | CCOC(=O)Cc1ccc(Nc2nc3ccccc3nc2C(=O)OCC)cc1 | – | > 100 µM | > 100 µM | > 100 µM | > 100 µM | > 100 µM | > 100 µM | > 100 µM | > 100 µM | > 100 µM | > 100 µM | > 100 µM | 88.9 µM | – | > 100 µM | 41 µM | > 100 µM | > 100 µM | > 100 µM
4 | CCOc1nnnc2nc[nH]c12 | > 100 µM | – | > 100 µM | > 100 µM | > 100 µM | > 100 µM | > 100 µM | > 100 µM | > 100 µM | > 100 µM | – | > 100 µM | > 100 µM | > 100 µM | > 100 µM | – | > 100 µM | > 100 µM | > 100 µM
5 | Nc1ccn([C@H]2CO[C@@H](CO)[C@@H]2O)c(=O)n1 | > 100 µM | > 100 µM | > 100 µM | > 100 µM | > 100 µM | > 100 µM | > 100 µM | > 100 µM | > 100 µM | > 100 µM | > 100 µM | > 100 µM | – | > 100 µM | > 100 µM | – | > 100 µM | > 100 µM | –
6 | CCOC(=O)NNC(=O)NCCCCNC(=O)NNC(=O)OCC | – | > 100 µM | > 100 µM | > 100 µM | > 100 µM | – | > 100 µM | > 100 µM | > 100 µM | > 100 µM | > 100 µM | > 100 µM | > 100 µM | > 100 µM | > 100 µM | > 100 µM | > 100 µM | > 100 µM | –
7 | Cn1c2ccccc2c(=O)c2cccc(C(=O)NC(CS)C(=O)O)c21 (stereo unspecified) | > 100 µM | – | > 100 µM | > 100 µM | > 100 µM | > 100 µM | > 100 µM | > 100 µM | > 100 µM | > 100 µM | – | > 100 µM | > 100 µM | > 100 µM | > 100 µM | > 100 µM | > 100 µM | > 100 µM | > 100 µM
8 | C[N+](C)(C)CC1CCC/C1=N\OC(=O)c1ccccc1 (stereo unspecified) | – | – | > 100 µM | > 100 µM | > 100 µM | > 100 µM | > 100 µM | > 100 µM | > 100 µM | > 100 µM | > 100 µM | – | – | – | > 100 µM | > 100 µM | > 100 µM | – | > 100 µM
9 | Cc1ncc([N+](=O)[O-])n1CCNCCCCn1ccnc1[N+](=O)[O-] | – | > 100 µM | > 100 µM | > 100 µM | > 100 µM | > 100 µM | > 100 µM | > 100 µM | > 100 µM | > 100 µM | > 100 µM | > 100 µM | > 100 µM | > 100 µM | > 100 µM | – | > 100 µM | > 100 µM | > 100 µM
10 | COC1=C(Br)[C@H](O)[C@@]2(C=C1Br)CC(C(=O)NCCCOc1c(Br)cc(C(O)CNC(C)=O)cc1Br)=NO2 (stereo partly specified) | > 10 µM | – | > 10 µM | > 10 µM | > 10 µM | > 10 µM | > 10 µM | > 10 µM | – | > 10 µM | > 10 µM | 5.12 µM | > 10 µM | > 10 µM | > 10 µM | > 10 µM | > 10 µM | 4.4 µM | > 10 µM
11 | CC1(C)OC[C@@H]([C@H](O)C2C=CC(=O)S2)O1 (stereo partly specified) | 33.5 µM | 58.5 µM | 40.5 µM | 45.7 µM | > 100 µM | > 100 µM | 78.5 µM | 90.4 µM | > 100 µM | 75.2 µM | 97.9 µM | > 100 µM | – | 70 µM | > 100 µM | > 100 µM | 30.1 µM | > 100 µM | 43.1 µM
12 | O=C(CC(C(=O)c1ccsc1)c1ccccc1)c1ccccc1 (stereo unspecified) | > 100 µM | > 100 µM | > 100 µM | > 100 µM | > 100 µM | 75.9 µM | 36.1 µM | > 100 µM | > 100 µM | > 100 µM | > 100 µM | > 100 µM | > 100 µM | – | > 100 µM | – | > 100 µM | > 100 µM | –
13 | CNCCCn1c2ccccc2c2c3c(c(-c4ccsc4)cc21)C(=O)NC3=O | 55.5 µM | 2.22 µM | 2.71 µM | 2.16 µM | 1.71 µM | 3.22 µM | 1.74 µM | 3.71 µM | 3.75 µM | > 100 µM | 3.24 µM | 2.35 µM | – | 3.06 µM | 0.182 µM | 3.06 µM | – | – | –
14 | Cc1nc2ccc(F)cc2c2c1CCN2c1ccc(Cl)cc1 | 29.4 µM | – | 20.6 µM | 12.3 µM | > 100 µM | > 100 µM | 48.2 µM | 71.8 µM | – | – | 31 µM | 33.5 µM | 79.5 µM | 30.6 µM | 24.3 µM | > 100 µM | – | 21.7 µM | 26.9 µM
